Test results: the NIST ThermoML archive (doi:10.1016/j.jct.2012.01.002)
Several values for one entry are separate records, joined by “and”; a condition that tells them apart may be missing. Equal entries are not always repeated. ± gives the expanded uncertainty stated by the source.

Assay: xn = mol fraction of the nth substance listed
Settings: 101 kPa, Liquid, Vibrating tube method

CCCCCCCC[N+](C)(CCCCCCCC)CCCCCCCC.O=S(=O)([N-]S(=O)(=O)C(F)(F)F)C(F)(F)F + CCOC(C)=O
mass density
Settings | x1 = 0.1167 | x1 = 0.2291 | x1 = 0.4417 | x1 = 0.5433 | x1 = 0.7037 | x1 = 0.7993 | x1 = 0.9209
298.15 K | 848.1 ± 150 kg/m3 and 989.9 ± 0.1 kg/m3 | 1034.5 ± 0.8 kg/m3 | 1074.7 ± 0.4 kg/m3 | 1085.4 ± 0.5 kg/m3 | 1096.7 ± 0.8 kg/m3 | 1101.3 ± 1 kg/m3 | 1105.4 ± 1.2 kg/m3
303.15 K | 984.9 ± 0.3 kg/m3 | 1029.5 ± 0.2 kg/m3 | 1069.6 ± 0.4 kg/m3 | 1080.3 ± 0.5 kg/m3 | 1091.5 ± 0.8 kg/m3 | 1096.2 ± 0.9 kg/m3 | 1100.5 ± 1.2 kg/m3
313.15 K | 974.9 ± 0.1 kg/m3 | 1020.9 ± 0.2 kg/m3 | 1062.5 ± 0.4 kg/m3 | 1073.4 ± 0.5 kg/m3 | 1085 ± 0.8 kg/m3 | 1089.6 ± 0.9 kg/m3 | 1062.5 ± 50 kg/m3 and 1094.1 ± 1.2 kg/m3

CCC(C)O (stereo unspecified) [butan-2-ol] + CCOC(C)=O
mass density [kg/m3]
Settings | 298.15 K | 303.15 K | 313.15 K
x1 = 0.0603 | 888.5 ± 0.1 | 882.5 ± 0.1 | 870.2 ± 0.1
x1 = 0.1109 | 883.2 ± 0.1 | 877.6 ± 0.1 | 865.6 ± 0.2
x1 = 0.1511 | 878.9 ± 0.1 | 873.2 ± 0.1 | 861.4 ± 0.2
x1 = 0.1998 | 873.8 ± 0.1 | 868.6 ± 0.1 | 857.1 ± 0.2
x1 = 0.2502 | 868.8 ± 0.2 | 863.5 ± 0.2 | 852.5 ± 0.2
x1 = 0.302 | 863.6 ± 0.2 | 858.4 ± 0.2 | 847.5 ± 0.2
x1 = 0.3489 | 858.9 ± 0.2 | 853.9 ± 0.2 | 843.2 ± 0.2
x1 = 0.3988 | 854.1 ± 0.2 | 849.2 ± 0.2 | 838.7 ± 0.2
x1 = 0.4506 | 849.4 ± 0.2 | 844.4 ± 0.2 | 834.3 ± 0.2
x1 = 0.5011 | 844.6 ± 0.2 | 839.9 ± 0.2 | 829.9 ± 0.2
x1 = 0.5631 | 839 ± 0.2 | 834.3 ± 0.2 | 824.5 ± 0.2
x1 = 0.601 | 835.6 ± 0.2 | 830.9 ± 0.2 | 821.2 ± 0.2
x1 = 0.6501 | 831.1 ± 0.2 | 826.8 ± 0.2 | 817.3 ± 0.2
x1 = 0.7032 | 826.5 ± 0.2 | 822.4 ± 0.2 | 812.9 ± 0.2
x1 = 0.752 | 822.5 ± 0.2 | 818.3 ± 0.2 | 808.9 ± 0.2
x1 = 0.8012 | 818.4 ± 0.2 | 814 ± 0.2 | 805.1 ± 0.2
x1 = 0.8498 | 814.6 ± 0.2 | 810.1 ± 0.2 | 801.4 ± 0.2
x1 = 0.9028 | 810.3 ± 0.2 | 805.8 ± 0.2 | 797.4 ± 0.2
x1 = 0.9519 | 806.7 ± 0.2 | 802.4 ± 0.2 | 794.4 ± 0.2

CCOC(C)=O [ethyl acetate] + CCCCO
mass density [kg/m3]
Settings | 298.15 K | 303.15 K | 313.15 K
x2 = 0.0904 | 886.5 ± 0.1 | 880.4 ± 0.1 | 869.6 ± 0.1
x2 = 0.1337 | 882.3 ± 0.1 | 876.8 ± 0.1 | 866 ± 0.1
x2 = 0.2525 | 871.5 ± 0.1 | 866.7 ± 0.1 | 856.6 ± 0.1
x2 = 0.3723 | 860.7 ± 0.1 | 856.6 ± 0.1 | 846.8 ± 0.2
x2 = 0.4807 | 851 ± 0.1 | 847.5 ± 0.2 | 838 ± 0.2
x2 = 0.5955 | 840.9 ± 0.1 | 838 ± 0.2 | 828.8 ± 0.2
x2 = 0.7032 | 831.5 ± 0.1 | 828.8 ± 0.2 | 820.1 ± 0.2
x2 = 0.8009 | 823 ± 0.2 | 820.6 ± 0.2 | 812.3 ± 0.2
x2 = 0.8916 | 815.1 ± 0.2 | 813 ± 0.2 | 805 ± 0.2
x2 = 0.9641 | 808.6 ± 0.2 | 806.7 ± 0.2 | 799.4 ± 0.2
x2 = 0.9795 | 807.3 ± 0.2 | 805.3 ± 0.2 | 798.1 ± 0.2
